# From patent US9745289B2, “Aldosterone synthase inhibitors” (Boehringer Ingelheim International GmbH, priority 2014, dated 2017)
# Molecular target: cortisol synthase (CYP11B1) (Macaca fascicularis, UniProt A0A2K5ULY1)
# Assay: Inhibition of Cortisol Synthesis
# Assay type: biochemical, cynomolgus monkey
# Conditions: cynomolgus adrenal gland mitochondria; 150 units of CYP11B1, 11-deoxycortisol as substrate, cortisol measured as product
# Method: The aldosterone synthase and cortisol synthase inhibition assays employ cynomolgus adrenal gland mitochondria as the source of aldosterone synthase (CYP11B2) and cortisol synthase (CYP11B1). […] Activity of CYP11B2 and CYP11B1 in these preparations is defined as the amount of enzyme that generates 1 pmol of product in one hour under the conditions described.
# Assays are performed in 96-well format in a final volume of 60 μL/well, containing 100 mM potassium phosphate, pH 7.4, 1% (v/v) DMSO, and additionally, 2 μM of corticosterone and 50 units of CYP11B2 activity. Reactions are started by the addition of NADPH to 1 mM and allowed to proceed for 90 minutes at 37° C. Reactions are terminated by the addition of 60 μL of MeCN containing an internal standard for mass spectrometry. One hundred microliters are then transferred to a glass filter plate and centrifuged at 570×g for 5 minutes and the filtrate is collected. Reaction product aldosterone is quantified by mass spectrometry. To determine the assay blank value (0% activity), NADPH is omitted from some reactions.
# Dose dependent inhibition is quantified by the inclusion of compound at various concentrations. Maximum activity (100%) is defined by reactions containing NADPH, but without compound.
# Assays are performed as for aldosterone synthase except for the use of 150 units of CYP11B1, 11-deoxycortisol as substrate and cortisol measured as product.
row,IC50 [µM],SMILES
1,> 30,"CC(=O)N1CCC[C@@H](Oc2cncc(C3COc4c(cccc4C(N)=O)O3)c2)C1 (single isomer, unassigned) [Cpd 7A]"
2,19,"CC(=O)N1CCC[C@@H](Oc2cncc(C3COc4c(cccc4C(N)=O)O3)c2)C1 (single isomer, unassigned) [Cpd 7B]"
3,> 30,"CS(=O)(=O)Cc1cncc(C2COc3c(cccc3C(N)=O)O2)c1 (single isomer, unassigned) [Cpd 8A, 2-(5-Methanesulfonylmethyl-pyridin-3-yl)-2,3-dihydro-benzo[1,4]dioxine-5-carboxylic acid amide]"
4,13,"CS(=O)(=O)Cc1cncc(C2COc3c(cccc3C(N)=O)O2)c1 (single isomer, unassigned) [Cpd 8B, 2-(5-Methanesulfonylmethyl-pyridin-3-yl)-2,3-dihydro-benzo[1,4]dioxine-5-carboxylic acid amide]"
5,5.2,"NC(=O)c1cccc2c1OCC(c1cncc(C(F)(F)F)c1)O2 (single isomer, unassigned) [Cpd 9A, 2-(5-Trifluoromethyl-pyridin-3-yl)-2,3-dihydro-benzo[1,4]dioxine-5-carboxylic acid amide]"
6,2.2,"NC(=O)c1cccc2c1OCC(c1cncc(C(F)(F)F)c1)O2 (single isomer, unassigned) [Cpd 9B, 2-(5-Trifluoromethyl-pyridin-3-yl)-2,3-dihydro-benzo[1,4]dioxine-5-carboxylic acid amide]"
7,3.4,"NC(=O)c1cccc2c1OCC(c1cncc(C3CCOCC3)c1)O2 (single isomer, unassigned) [Cpd 10A, 2-[5-(Tetrahydro-pyran-4-yl)-pyridin-3-yl]-2,3-dihydro-benzo[1,4]dioxine-5-carboxylic acid amide]"
8,0.23,"NC(=O)c1cccc2c1OCC(c1cncc(C3CCOCC3)c1)O2 (single isomer, unassigned) [Cpd 10B, 2-[5-(Tetrahydro-pyran-4-yl)-pyridin-3-yl]-2,3-dihydro-benzo[1,4]dioxine-5-carboxylic acid amide]"
9,24,"NC(=O)c1cccc2c1OCC(c1cncc(C3(O)CCCCC3)c1)O2 (single isomer, unassigned) [Cpd 11A, 2-[5-(1-Hydroxy-cyclohexyl)-pyridin-3-yl]-2,3-dihydro-benzo[1,4]dioxine-5-carboxylic acid amide]"
10,4.4,"NC(=O)c1cccc2c1OCC(c1cncc(C3(O)CCCCC3)c1)O2 (single isomer, unassigned) [Cpd 11B, 2-[5-(1-Hydroxy-cyclohexyl)-pyridin-3-yl]-2,3-dihydro-benzo[1,4]dioxine-5-carboxylic acid amide]"
11,18,"CC(=O)N1CCC(Oc2cncc(C3COc4c(cccc4C(N)=O)O3)c2)CC1 (single isomer, unassigned) [Cpd 12A, 2-[5-(1-Acetyl-piperidin-4-yloxy)-pyridin-3-yl]-2,3-dihydro-benzo[1,4]dioxine-5-carboxylic acid amide]"
12,2,"CC(=O)N1CCC(Oc2cncc(C3COc4c(cccc4C(N)=O)O3)c2)CC1 (single isomer, unassigned) [Cpd 12B, 2-[5-(1-Acetyl-piperidin-4-yloxy)-pyridin-3-yl]-2,3-dihydro-benzo[1,4]dioxine-5-carboxylic acid amide]"

# Further lines, the molecule ahead of its results:
row,SMILES,IC50 [µM]
1,"NC(=O)c1cccc2c1OCC(c1cncc(C3(O)CCOCC3)c1)O2 (single isomer, unassigned) [Cpd 1A, 2-[5-(4-Hydroxy-tetrahydro-pyran-4-yl)-pyridin-3-yl]-2,3-dihydro-benzo[1,4]dioxine-5-carboxylic acid amide]",> 100
2,"NC(=O)c1cccc2c1OCC(c1cncc(C3(O)CCOCC3)c1)O2 (single isomer, unassigned) [Cpd 1B, 2-[5-(4-Hydroxy-tetrahydro-pyran-4-yl)-pyridin-3-yl]-2,3-dihydro-benzo[1,4]dioxine-5-carboxylic acid amide]",24
3,"N#CC1(c2cncc(C3COc4c(cccc4C(N)=O)O3)c2)CC1 (single isomer, unassigned) [Cpd 2A, 2-[5-(1-Cyano-cyclopropyl)-pyridin-3-yl]-2,3-dihydro-benzo[1,4]dioxine-5-carboxylic acid amide]",0.06
4,"N#CC1(c2cncc(C3COc4c(cccc4C(N)=O)O3)c2)CC1 (single isomer, unassigned) [Cpd 2B, 2-[5-(1-Cyano-cyclopropyl)-pyridin-3-yl]-2,3-dihydro-benzo[1,4]dioxine-5-carboxylic acid amide]",0.23
5,"NC(=O)c1cccc2c1OCC(c1cncc(CN3CCCCS3(=O)=O)c1)O2 (single isomer, unassigned) [Cpd 3A, 2-[5-(1,1-Dioxo-1λ^6,-[1,2]thiazinan-2-ylmethyl)-pyridin-3-yl]-2,3-dihydro-benzo[1,4]dioxine-5-carboxylic acid amide]",> 30
6,"NC(=O)c1cccc2c1OCC(c1cncc(CN3CCCCS3(=O)=O)c1)O2 (single isomer, unassigned) [Cpd 3B, 2-[5-(1,1-Dioxo-1λ^6,-[1,2]thiazinan-2-ylmethyl)-pyridin-3-yl]-2,3-dihydro-benzo[1,4]dioxine-5-carboxylic acid amide]",5.6
7,"NC(=O)c1cccc2c1OCC(c1cccnc1)O2 (single isomer, unassigned) [Cpd 4A, 2-Pyridin-3-yl-2,3-dihydro-benzo[1,4]dioxine-5-carboxylic acid amide]",3.1
8,"NC(=O)c1cccc2c1OCC(c1cccnc1)O2 (single isomer, unassigned) [Cpd 4B, 2-Pyridin-3-yl-2,3-dihydro-benzo[1,4]dioxine-5-carboxylic acid amide]",2.5
9,"NC(=O)c1cccc2c1OCC(c1cncc(CN3CCCC3=O)c1)O2 (single isomer, unassigned) [Cpd 5A, 2-[5-(2-Oxo-pyrrolidin-1-ylmethyl)-pyridin-3-yl]-2,3-dihydro-benzo[1,4]dioxine-5-carboxylic acid amide]",> 30
10,"NC(=O)c1cccc2c1OCC(c1cncc(CN3CCCC3=O)c1)O2 (single isomer, unassigned) [Cpd 5B, 2-[5-(2-Oxo-pyrrolidin-1-ylmethyl)-pyridin-3-yl]-2,3-dihydro-benzo[1,4]dioxine-5-carboxylic acid amide]",22
11,"CN1C(=O)CCC1c1cncc(C2COc3c(cccc3C(N)=O)O2)c1 (single isomer, unassigned) [Cpd 6AA, 2-[5-(-1-Methyl-5-oxo-pyrrolidin-2-yl)-pyridin-3-yl]-2,3-dihydro-benzo[1,4]dioxine-5-carboxylic acid amide]",2.2
12,"CN1C(=O)CCC1c1cncc(C2COc3c(cccc3C(N)=O)O2)c1 (single isomer, unassigned) [Cpd 6AB, 2-[5-(-1-Methyl-5-oxo-pyrrolidin-2-yl)-pyridin-3-yl]-2,3-dihydro-benzo[1,4]dioxine-5-carboxylic acid amide]",10
13,"CN1C(=O)CCC1c1cncc(C2COc3c(cccc3C(N)=O)O2)c1 (single isomer, unassigned) [Cpd 6BA, 2-[5-(-1-Methyl-5-oxo-pyrrolidin-2-yl)-pyridin-3-yl]-2,3-dihydro-benzo[1,4]dioxine-5-carboxylic acid amide]",> 30
14,"CN1C(=O)CCC1c1cncc(C2COc3c(cccc3C(N)=O)O2)c1 (single isomer, unassigned) [Cpd 6BB, 2-[5-(-1-Methyl-5-oxo-pyrrolidin-2-yl)-pyridin-3-yl]-2,3-dihydro-benzo[1,4]dioxine-5-carboxylic acid amide]",> 30
